Laboratory results taken from patent US20230382998A1, “METHODS FOR TREATING INFLAMMATORY BOWEL DISEASES WITH a4B7 INTEGRIN ANTAGONISTS” (Protagonist Therapeutics, Inc., priority 2022, published 2023).
Numbered stars: 1 amine (or outer) side, 2 acyl side, 3 side chain; on linkers, the order of the positions; unused ones are H or OH. Bridge positions count the residues as written; N and C are the ends. Square brackets hold non-standard residues; d marks the D form. Peptide text beside a SMILES is read from it. I, II: the chains in the order shown. ξ: configuration not given here. Phe(4-tBu) = CC(C)(C)c1ccc(C[C@H](N)C(=O)O)cc1; Diglycolyl = O=C(COCC(=O)[*:2])[*:1]; NMeR = CN[C@@H](CCCNC(=N)N)C(=O)O; β3hE = N[C@@H](CCC(=O)O)CC(=O)O; Thr(3ξ) = CC(O)[C@H](N)C(=O)O; X1 = O=C(c1ccccc1C[*:2])[*:1]; Pen = CC(C)(S)[C@H](N)C(=O)O

Key:
[1] = system: subjects with moderate to severe active ulcerative colitis; assay: Phase 2 randomized, double-blind, placebo-controlled study of oral Compound (I), 12-week induction; type: in vivo, human; conditions: FIG. 3; for proportion of subjects achieving clinical remission at Week 12, total: 150 mg BID + 450 mg BID
Excerpt: As used herein, the term “clinical remission rate” refers to when the symptoms of IBD have lessened to the point that they're mostly absent or gone, including endoscopic remission, wherein inflammation is seen during a colonoscopy or a sigmoidoscopy and determined by a healthcare provider that the lining of the digestive tract is improved or healed. […] As used herein, the term “compound of formula (I)” or Compound (I) refers to a peptide compound having the following structure:
The study also evaluates the pharmacokinetic (PK) and pharmacodynamics (PD) and biomarker responses to treatment with oral Compound (I).
This is a two-part study: Part 1 is a randomized, double-blind, placebo-controlled, parallel design 12-week induction treatment period in patients with moderate to severe active UC; and Part 2 is an extended treatment period of 40 weeks that will include subjects who successfully complete Part 1. Subjects who complete the Week 12 visit for Part 1 will be eligible to enter Part 2.
Part 1 is a 12-week randomized, double-blind, placebo-controlled, parallel design study in adult subjects with moderate to severe active UC. Eligible subjects are randomized 1:1:1 to Compound (I) 450 mg twice daily (BID), Compound (I) 150 mg BID, or placebo BID. Subjects must have a biopsy-confirmed diagnosis of UC. […] Subjects with a history of prior vedolizumab treatment will be excluded. Randomization will be stratified by prior failure to a TNFα antagonist or an IL-12/23 antagonist.
Primary outcome measures include the proportion of subjects achieving clinical remission at Week 12 compared to placebo. Clinical remission is determined using the Adapted Mayo score (sum of 3 subscores from the Mayo score): • Stool frequency subscore (SFS) • Rectal bleeding subscore (RBS) • Endoscopic subscore (ESS)
Efficacy is assessed, at least in part, based on the Mayo score. The Mayo score includes 4 components: Stool Frequency Subscore (SFS), Rectal Bleeding Subscore (RBS), Endoscopic Subscore (ESS) and Physician's Global Assessment (PGA). Each of the individual scores range from 0 to 3 with higher number indicating higher severity): • Complete Mayo Score is a sum of all 4 subscores (SFS, RBS, ESS and PGA) and ranges from 0 to 12 points. • Adapted Mayo Score is a sum of 3 subscores (SFS, RBS and ESS). The Adapted Mayo score ranges from 0 to 9 points. • Partial Mayo Score is a sum of 3 subscores (SFS, RBS and PGA) ranging from 0 to 9 points.
Blood samples for measurement of Compound (I) plasma concentrations will be collected at 0 (within 1 hour pre-dose) and at 1, 2, and 4 hours post-dose on Week 0 (Study Day 1) and Week 12. A single pre-dose sample should be collected within 1 hour prior to the first dose of the day on each clinic visit.
Blood (4 mL) samples for PK analysis will be obtained in K2EDTA tubes prior to dosing and at the time points delineated in the study schedule. All samples (except those collected post-dose on Day 0 and Day 84) should be obtained prior to the daily dosing of study drug (i.e. Ctrough).

[2] = DTT (Dithiothreitol) assay, stability to gastric environment under reduced conditions; type: physicochemical
Description: The compound of formula (I) or a pharmaceutically acceptable salt thereof comprises a half-life from approximately 1 minute to approximately 180 minutes.

[3] = trough concentration quartile Q1 at week 12
[4] = trough concentration quartile Q2 at week 12
[5] = trough concentration quartile Q3 at week 12
[6] = trough concentration quartile Q4 at week 12

- half-life [2]: > 2 h
SMILES: CC(C)C[C@@H]1NC(=O)[C@H](C(C)O)NC(=O)[C@H](CC(=O)O)NC(=O)[C@H](CO)NC(=O)[C@H](CCCNC(=N)N)N(C)C(=O)c2ccccc2CSC(C)(C)[C@@H](C(=O)N[C@@H](Cc2ccc(C(C)(C)C)cc2)C(=O)N[C@@H](CCC(=O)O)CC(=O)N[C@H](CCCCNC(=O)COCC(=O)NCCCC[C@@H](NC(=O)C[C@H](CCC(=O)O)NC(=O)[C@H](Cc2ccc(C(C)(C)C)cc2)NC(=O)[C@H]2NC(=O)[C@H](CC(C)C)NC(=O)[C@H](C(C)O)NC(=O)[C@H](CC(=O)O)NC(=O)[C@H](CO)NC(=O)[C@H](CCCNC(=N)N)N(C)C(=O)c3ccccc3CSC2(C)C)C(=O)O)C(=O)O)NC1=O (stereo partly drawn) [compound of formula (I)] (I: [NMeR]SD[Thr(3ξ)]L[Pen][Phe(4-tBu)][β3hE][dK]-OH / II: [NMeR]SD[Thr(3ξ)]L[Pen][Phe(4-tBu)][β3hE][dK]-OH; linker I:9-II:9 via Diglycolyl; linker I:N-I:6, II:N-II:6 via X1)
- proportion of subjects achieving clinical remission at Week 12, total [1, 3]: 33.3%
- proportion of subjects achieving clinical remission at Week 12, part being 450 mg BID dose [1, 3]: 26.7%
- proportion of subjects achieving clinical remission at Week 12, total [1, 4]: 40%
- proportion of subjects achieving clinical remission at Week 12, part being 450 mg BID dose [1, 4]: 26.7%
- proportion of subjects achieving clinical remission at Week 12, total [1, 5]: 13.3%
- proportion of subjects achieving clinical remission at Week 12, part being 450 mg BID dose [1, 5]: 6.7%
- proportion of subjects achieving clinical remission at Week 12, total [1, 6]: 18.8%
- proportion of subjects achieving clinical remission at Week 12, part being 450 mg BID dose [1, 6]: 6.3%
